The values below come from patent US9802899B2, “Heterocyclic compounds as pesticides” (BAYER CROPSCIENCE AG, priority 2012, dated 2017).

As usually defined, the chromatographic logP is lipophilicity estimated from chromatographic retention. A high value points to higher lipophilicity. The term log P denotes a log measure of how a compound divides between an organic and an aqueous phase.

The nature of one data set: Determination of the log P values by HPLC (formic acid method). The class given is physicochemical. The conditions noted are these: reversed-phase HPLC column (C 18), reversed-phase column (C 18), acidic range (pH 3.4), 55° C. The protocol: 1) Description of Method for Determination of the Log P Values (Formic Acid Method)
Eluents for determination in the acidic range (pH 3.4):
Eluent A: acetonitrile+1 ml of formic acid/liter. Eluent B: water+0.9 ml of formic acid/liter.
The lambda max values were determined in the maxima of the chromatographic signals using the UV spectra from 200 nm to 400 nm.
`O=C(Nc1ccn(-c2c(F)cc([N+](=O)[O-])cc2F)n1)c1ccccc1C(F)(F)F` [Compound I-1-229, N-[1-(2,6-Difluoro-4-nitrophenyl)-1H-pyrazol-3-yl]-2-(trifluoromethyl)benzamide] had a chromatographic logP of 2.86.

For the compound `Nc1ccn(-c2c(Cl)cccc2Cl)n1` [1-(2,6-Dichlorophenyl)-1H-pyrazole-3-amine], the chromatographic logP was 1.47.

With `O=C(Nc1ccn(-c2cccnc2Cl)n1)c1ccccc1I` [Compound I-1-139, N-[1-(2-Chloropyridin-3-yl)-1H-pyrazol-3-yl]-2-iodobenzamide], the chromatographic logP is 2.27.

For the compound `CCOc1cccc(Cl)c1-n1ccc(N)n1` [1-(2-Chloro-6-ethoxyphenyl)-1H-pyrazole-3-amine], the chromatographic logP was 2.13.

Consider `CCOc1c(Cl)cccc1-n1ccc(N)n1` [1-(3-Chloro-2-ethoxyphenyl)-1H-pyrazole-3-amine], for which the chromatographic logP came to 2.13.

Take `N#Cc1cncnc1-n1ccc(N)n1` [4-(3-Amino-1H-pyrazol-1-yl)pyrimidine-5-carbonitrile]: the chromatographic logP was 0.59.

In turn, `N#Cc1cc(F)c(-n2ccc(NC(=O)c3ccccc3C(F)(F)F)n2)c(F)c1` [Compound I-1-228, N-[1-(4-Cyano-2,6-difluorophenyl)-1H-pyrazol-3-yl]-2-(trifluoromethyl)benzamide] yielded a chromatographic logP of 2.66.

The data set is the same for the next values; noted with them: reversed-phase column (C 18), acidic range (pH 3.4), 55° C.
In the case of `O=C(Nc1ccn(-c2ncccc2Br)n1)c1cccnc1C(F)(F)F` [Compound I-1-550], the “log P” value is 2.34.

Consider `O=C(Nc1ccn(-c2ncc(Cl)cc2F)n1)c1ccccc1Cl` [Compound I-1-590], for which the “log P” value was found to be 2.74.

`Cn1nc(C(F)(F)F)c(C#N)c1C(=O)Nc1ccn(-c2ncc(F)cc2F)n1` [Compound I-1-536]: the “log P” value turned out to be 2.76.

`N#Cc1cc(F)ccc1-n1ccc(NC(=O)c2cccnc2Cl)n1` [Compound I-1-631]: the “log P” value stood at 1.91.

For `CCc1ncccc1C(=O)Nc1ccn(-c2c(F)cccc2F)n1` [Compound I-1-275], the “log P” value came out at 1.47.

Turning to `O=C(Nc1ccn(-c2ccccc2[N+](=O)[O-])n1)c1ccccc1C(F)(F)F` [Compound I-1-415], the “log P” value worked out at 2.63.

For `Cc1nn(C)cc1C(=O)Nc1ccn(-c2ncc(F)cc2F)n1` [Compound I-1-446], the “log P” value came to 1.54.

As for `O=C(Nc1cnn(-c2ncccc2Br)n1)c1ccccc1C(F)(F)F` [Compound I-2-17], the “log P” value is recorded as 2.46.

With `CCC(C)n1ncc(I)c1C(=O)Nc1ccn(-c2c(F)cccc2F)n1` (stereo not drawn) [Compound I-1-245], the “log P” value was 3.47.

For `O=C(Nc1ccn(-c2ncc(F)cc2F)n1)c1cccnc1C(F)(F)F` [Compound I-1-151], the “log P” value is recorded as 2.02.

For `Cn1cc(C(=O)Nc2ccn(-c3c(F)cccc3F)n2)c(C(F)(F)F)c1` [Compound I-1-240], the “log P” value stood at 2.52.

For `N#Cc1ccccc1C(=O)Nc1ccn(-c2c(F)cccc2F)n1` [Compound I-1-272], the “log P” value worked out at 2.48.

As to `Cn1cc(C(=O)Nc2cnn(-c3c(F)cccc3F)n2)c(C(F)F)n1` [Compound I-2-78], the “log P” value was determined as 2.22.

On to `Cc1nn(C)c(C(=O)Nc2ccn(-c3c(F)cccc3F)n2)c1Br` [Compound I-1-298], for which the “log P” value is reported as 2.76.

Consider `CCc1cccc(F)c1C(=O)Nc1ccn(-c2ncc(F)cc2F)n1` [Compound I-1-487], for which the “log P” value is recorded as 2.69.

In the case of `O=C(Nc1ccn(-c2c(F)cccc2F)n1)c1ccncc1C(F)(F)F` [Compound I-1-97], the “log P” value is given as 2.16.

As for `Cn1cc(Br)c(C(=O)Nc2ccn(-c3c(F)cccc3F)n2)n1` [Compound I-1-301], the “log P” value is listed as 2.37.

As to `Cc1cc(NC(=O)c2ccccc2OC(F)(F)F)nn1-c1ccccc1Cl` [Compound I-1-343], the “log P” value was determined as 2.87.

With `O=C(Nc1nn(-c2ccccc2Br)nc1Cl)c1cccnc1Cl` [Compound I-2-31], the “log P” value is recorded as 2.46.

For `O=C(Nc1ccn(-c2c(F)cccc2F)n1)c1ccccc1OC(F)(F)F` [Compound I-1-79], the “log P” value is given as 2.96.

As to `CCOc1cccc(Cl)c1-n1ccc(NC(=O)c2ccccc2C(F)(F)F)n1` [Compound I-1-340], the “log P” value came out at 3.15.

Take `O=C(Nc1cnn(-c2c(F)cccc2F)n1)c1cccnc1C(F)(F)F` [Compound I-2-76]: the “log P” value is given as 2.40.

Turning to `O=C(c1ccccc1C(F)(F)F)N(C(=O)c1ccccc1C(F)(F)F)c1nn(-c2ccccc2Cl)nc1Cl` [Compound I-2-20], the “log P” value is listed as 4.87.

`O=C(Nc1cnn(-c2ccc(C(F)(F)F)cn2)n1)c1ccccc1I` [Compound I-2-43]: the “log P” value is 3.04.

For `O=C(Nc1nn(-c2ccccc2Cl)cc1I)c1ccccc1I` [Compound I-1-367], the “log P” value is 3.18.

Consider `O=C(Nc1ccn(-c2ncc(F)cc2F)n1)c1nccnc1Cl` [Compound I-1-485], for which the “log P” value is given as 1.89.

For the compound `Cc1nc(-n2ccc(NC(=O)c3ccccc3Br)n2)c(F)cc1F` [Compound I-1-442], the “log P” value is on record as 2.71.

In the case of `CCc1cccc(F)c1C(=O)Nc1ccn(-c2c(F)cccc2F)n1` [Compound I-1-274], the “log P” value was found to be 2.85.

For the compound `Cc1oc(C)c(C(=O)Nc2ccn(-c3ncc(F)cc3F)n2)c1Br` [Compound I-1-523], the “log P” value was determined as 3.18.

As to `O=C(Nc1ccn(-c2ccccc2[N+](=O)[O-])n1)c1cccnc1C(F)(F)F` [Compound I-1-416], the “log P” value amounted to 2.16.

As for `O=C(Nc1ccn(-c2ncc(Cl)cc2Cl)n1)c1ccccc1I` [Compound I-1-433], the “log P” value was found to be 3.06.

Regarding `Cc1cccnc1C(=O)Nc1ccn(-c2c(F)cccc2F)n1` [Compound I-1-90], the “log P” value was determined as 2.86.

Turning to `O=C(Nc1ccn(-c2c(F)cccc2F)n1)c1ccccc1NC(=O)C(F)(F)F` [Compound I-1-612], the “log P” value amounted to 3.53.

In the case of `Cc1c([N+](=O)[O-])c(C(=O)Nc2ccn(-c3c(F)cccc3F)n2)nn1C` [Compound I-1-234], the “log P” value came to 2.03.

As for `Cc1ccsc1C(=O)Nc1ccn(-c2cc(F)ccc2F)n1` [Compound I-1-71], the “log P” value amounted to 3.24.

Take `O=C(Nc1cnn(-c2ncc(F)cc2F)n1)c1ccccc1Cl` [Compound I-2-70]: the “log P” value was determined as 2.22.

With `CS(=O)(=O)c1ccccc1-n1ccc(NC(=O)c2c(F)cccc2F)n1` [Compound I-1-181], the “log P” value is on record as 1.86.

For the compound `O=C(Nc1ccn(-c2ncc(Cl)cc2Cl)n1)c1ccc(F)cc1C(F)(F)F` [Compound I-1-436], the “log P” value was 2.61.

Consider `Cc1nn(-c2ncccc2Cl)nc1N(C(=O)c1ccccc1C(F)(F)F)C(=O)c1ccccc1C(F)(F)F` [Compound I-2-54], for which the “log P” value turned out to be 3.93.

Regarding `O=C(Nc1ccn(-c2ncc(C(F)(F)F)cc2Cl)n1)c1ccccc1Cl` [Compound I-1-561], the “log P” value is 3.30.

Regarding `Nc1cc(NC(=O)c2ccccc2Br)nn1-c1ccccc1Cl` [Compound I-1-355], the “log P” value is 1.94.

As for `O=C(Nc1ccn(-c2cccc(Cl)c2Cl)n1)c1ccccc1Cl` [Compound I-1-188], the “log P” value worked out at 3.38.

On to `CC(=O)NC1=NN(c2c(F)cccc2F)CC1` [N-[1-(2,6-Difluorophenyl)-4,5-dihydro-1H-pyrazol-3-yl]acetamide], for which the chromatographic logP was 1.46.

In the case of `Cn1nc(C(C)(C)C)c([N+](=O)[O-])c1C(=O)Nc1ccn(-c2ncc(F)cc2F)n1` [Compound I-1-512], the “log P” value is 3.11.

Take `N#Cc1cc(F)c(-n2nc(NC(=O)c3ccccc3C(F)(F)F)c3c(F)cccc32)cc1F` [Compound I-5-10]: the log partition coefficient (log P) worked out at 3.26.

On to `O=C(Nc1ccn(-c2nc(F)c(F)cc2F)n1)c1ccccc1C(F)(F)F` [Compound I-1-162], for which the “log P” value is recorded as 2.78.

In the case of `O=C(Nc1nn(-c2c(F)cccc2F)cc1Br)c1ccccc1C(F)(F)F` [Compound I-1-252], the “log P” value is reported as 2.77.

Consider `COc1ccccc1-n1ccc(NC(=O)c2c(F)cccc2F)n1` [Compound I-1-408], for which the “log P” value is listed as 2.57.

On to `Cc1cc(NC(=O)c2cccnc2C(F)(F)F)nn1-c1ccc(F)cc1F` [Compound I-1-203], for which the “log P” value came to 3.19.

`O=C(Nc1nn(-c2ccccc2Br)nc1Cl)c1ccccc1I` [Compound I-2-32]: the “log P” value is on record as 3.24.

`O=C(Nc1ccn(-c2ccccc2Cl)n1)c1cccnc1F` [Compound I-1-364]: the “log P” value is 2.38.

In the case of `O=C(Nc1ccn(-c2ncc(F)cc2F)n1)c1cccnc1OC(F)(F)F` [Compound I-1-464], the “log P” value is given as 2.53.

As to `O=C(Nc1ccn(-c2ncc(F)cc2F)n1)C1=C(C(F)F)OCCS1` [Compound I-1-636], the “log P” value was 2.31.

`Cc1nn(C)c(C(=O)Nc2ccn(-c3c(F)cccc3F)n2)c1[N+](=O)[O-]` [Compound I-1-233]: the “log P” value turned out to be 2.23.

With `Cn1cc(Br)c(C(=O)Nc2ccn(-c3ncc(F)cc3F)n2)n1` [Compound I-1-520], the “log P” value amounted to 2.15.

Turning to `O=C(Nc1ccn(-c2ncccc2Cl)n1)c1cccnc1Br` [Compound I-1-565], the “log P” value amounted to 1.68.

With `O=C(Nc1ccn(-c2ncc(Cl)cc2Cl)n1)c1c(F)cccc1F` [Compound I-1-429], the “log P” value amounted to 2.77.

In the case of `Cc1cn(-c2ccccc2Cl)nc1NC(=O)c1cccnc1Br` [Compound I-1-357], the “log P” value was 2.23.

With `CCc1ccccc1C(=O)Nc1ccn(-c2ccccc2Cl)n1` [Compound I-1-12], the “log P” value is 3.30.

For `Cc1ccccc1C(=O)Nc1ccn(-c2c(F)cccc2F)n1` [Compound I-1-73], the “log P” value came out at 2.60.

As for `Cc1nn(-c2ncccc2Cl)nc1NC(=O)c1ccccc1C(F)(F)F` [Compound I-2-53], the “log P” value was determined as 2.33.

With `O=C(Nc1cnn(-c2ccccc2Br)n1)c1ccccc1C(F)(F)F` [Compound I-2-6], the “log P” value is given as 3.03.
